Data set [1] concerns the target T1, TDP-43 aggregates in ALS brain sections (Homo sapiens, UniProt Q13148).
T1 construct: from tissue; host or cells: paraffin sections of human ALS patient brain
Briefly: Pathological staining, colocalization with anti-TDP-43 antibody. Conditions: brain sections from an ALS patient. Here is the method:
(§1) Human brain tissues of AD or ALS patients and human neuroblastoma tissues were immersed in xylene three times for 5 min to remove paraffin, followed by two 10 min washes with a series of diluted alcohols (100, 90%, 70%, and 50% ethanol in dd water, v/v). Following PBS washing, heat‐mediated antigen retrieval was per‐ formed in 10 mM citrate buffer (pH 9.0) using a temperature‐gradient protocol: samples were gradually heated to boiling point through sequential low‐to‐high intensity thermal exposure (total 15 min duration), followed by natural cooling to ambient temperature. […] To avoid the fluorescence overlap between antibody staining and probe labeling, specific secondary antibodies were selected. […]
(§2) The fluorescence images of tissues were acquired by a scanning microscope (KF‐FL‐020, KFBIO).
(§3) All experiments were conducted over 3–5 independent experiments, and error bars represent the S.E.M across these runs. […] Statistical analysis was performed using GraphPad Prism 8.3.0, with significance determined by one‐way ANOVA followed by Tukey's or Dunnett's post hoc tests. […] Colocalization analysis was performed using the Pearson's correlation coefficient (PCC) calculated via ImageJ software.

The target of data set [2] is T2, TDP-43 aggregates (Homo sapiens, UniProt Q13148).
T2 construct: purchased Sangon Biotech
Briefly: Fluorescence turn-on response / spectral assay with TDP-43 aggregates. In kind it is binding. As for the experimental part: (§4) To evaluate the fluorescence turn‐on responses to targets, protein (2 µM) were incubated with probe solutions (2 µM, PBS containing 10% DMSO) for 60 min at room temperature. For probe B3, specific experiments involved co‐incubation of 5 µM B3 with 10 µM TDP‐43 aggregates for 60 min.

The nature of data set [3]: Photophysical property characterization (absorption/emission spectra, quantum yield). To be noted: for λAbs b, spectra assays data / λEm b, spectra assays data / ε: acetonitrile (MeCN); for λAbs b, spectra assays data / λEm b, spectra assays data: 10 µM, Extended Data Table 1; for ε: in M-1·cm-1 (unit assumed). It counts as physicochemical. As for the experimental part: For absorption and emission spectra measurements, the molecules were diluted to 10 µM in various solvents, including EtOH, DMSO, MeCN, H2O, and MeOH. Prior to analysis, the prepared samples were equilibrated at 25°C for 5 min to ensure consistent conditions. Subsequently, their absorption and emission spectra were measured. The absolute fluorescence quantum yield of these probes was measured using the FLS1000 Photoluminescence Spectrometer (Edinburgh Instruments Ltd.).

Data set [4] deals with SU-DHL-6 lymphoma xenografts. Briefly: Tumor model ex vivo fluorescence imaging. It counts as in vivo, mice. To be noted: 10 mg/kg i.v., 4 h post-injection. As for the experimental part: SU-DHL-6 cells were suspended in 100 μL of 50% Matrigel / PBS mixture. Hun dred microliters of SU-DHL-6 cell suspensions, corresponding to 1.8 × 10^6 cells per mouse, were subcutaneously injected into the left flank region of NSFG mice (female, aged 8-10 weeks). The mice were monitored for tumor formation. […] Mice were sacrificed after 4 h and tissues (heart, liver, spleen, lung, kidney, and tumor) were obtained. The fluorescence signals in tissues were recorded using the […] imaging system.

The target of data set [5] is T3, BCL-2 (Homo sapiens, UniProt P10415). Briefly: Fluorescence turn-on response / spectral assay with BCL-2. It counts as binding. As for the experimental part: as §4
For data set [6], the target named is T4, BCL-2 in U2932 and SU-DHL-6 cells (Homo sapiens, UniProt P10415).
T4 construct: endogenous in cells; host or cells: U2932 and SU-DHL-6
Briefly: Cell imaging with anti-BCL-2 co-staining. In kind it is cell-based. Conditions: U2932 and SU-DHL-6, 5 µM obatoclax. As for the experimental part: Cells of the logarithmic growth phase were taken and transferred them to centrifuge tubes (5 × 10^4 cells/mL). After centrifugation, the culture medium was discarded. Cells were washed once with PBS, centrifuged, and the supernatant aspirated. One milliliter of ice methanol was added, followed by gentle resuspension and fixation for 30 min. After centrifugation, the supernatant was discarded, and cells were washed twice with PBS. Subsequently, 500 µL of 5% BSA blocking solution was added, and cells were gently resuspended before transfer to a 35‐mm confocal dish for sealing and incubation at room temperature for 1 h. The cell suspension was then added into a centrifuge tube, centrifuged to remove blocking solution, and resuspended in 500 µL of primary antibody solution (Proteintech, 12789‐1‐AP, 1:500). Cells were transferred to a confocal dish and incubated overnight at 4°C. After centrifugation to remove primary antibody, cells were washed twice with PBS. Next, 500 µL of secondary antibody (Beyotime, A0468, 1:500) was added, followed by incubation at room temperature for 1 h. Following centrifugation, the cells were washed twice with PBS and stained with 500 µL of DAPI solution (Beyotime, C1006) for 10 min at room temperature. […] After centrifugation, cells were washed twice with PBS, resuspended in 1 mL PBS, transferred to a confocal dish, and imaged with a laser confocal microscope.

In data set [7] the target is T5, BCL-2 in neuroblastoma tumor tissue sections (Homo sapiens, UniProt P10415).
T5 construct: from tissue; host or cells: human neuroblastoma tissue sections
Briefly: Pathological staining, colocalization with anti-BCL-2 antibody. As for the experimental part: as §1, §2, §3

Data set [8] concerns the target T3, BCL-2. Conditions: previous reports; ref [36], [37], [38]; cited from earlier work.
Data set [9] concerns the target tau aggregates in AD brain sections (Homo sapiens, UniProt P10636). Briefly: Pathological staining, colocalization with anti-tau antibody. Here is the method:
as §1, §2, §3

Data set [10] concerns tau. To be noted: previous reports; ref [36], [37], [38]; cited from earlier work.
For data set [11], the target named is T6, tau aggregates (Homo sapiens, UniProt P10636).
T6 construct: purchased QYAOBIO
As to the kind of experiment: Fluorescence turn-on response / spectral assay with tau aggregates. In kind it is binding. Here is the method: as §4

For data set [12], the target named is T6, tau aggregates. Briefly: Dissociation constant measurement by fluorescence titration. In kind it is binding. Conditions: tau aggregates titrated with probe, 37°C 1 h. As for the experimental part: The human recombinant tau protein (1 mg, QYAOBIO) was dissolved in PBS containing 110 µM heparin sodium to a final concentration of 55 µM. The solution was shake vigorously (100 rpm, Crystal IS‐RDV1) at 37°C for 72 h. Similarly, the human recombinant TDP‐43 protein (0.9 mg, Sangon Biotech) was dissolved in 1 mL Tris buffer (50 mM Tris, 300 mM NaCl, 10% Glycerol, pH 8.0) and was shake vigorously (200 rpm, Crystal IS‐RDV1) at 37°C for 48 h. Aggregates formation was monitored and verified using ThT fluorescence assay. The resulting aggregates was divided into aliquots and stored at −20°C before use.
To 1 µM protein solution in PBS containing 10% DMSO, different concentrations of probe was added (final concentration 0, 1, 2, 5, 8, 10, 20, 50, 80, 100, 200, 500, 800, and 1000 nM). The mixture was dispensed into 96‐well plates and incubated at 37°C for 1 h. The fluorescence intensity of the samples was recorded at maximum emission wavelength of probe by using a microplate reader (PerkinElmer, VICTOR Nivo^TM). Dose‐ response curves were generated by plotting fluorescence intensity against probe concentration, and equilibrium dissociation constants were calculated via nonlinear regression analysis in GraphPad Prism.

The nature of data set [13]: Selectivity evaluation (fluorescence response to non-target analytes). Conditions: probe 1 µM, analytes 2 µM, 60 min. Here is the method:
For selectivity evaluation, the probes were diluted to a final concentration of 1 µM and treated with 2 µM of various analytes. After 60 min of incubation at room temperature, fluorescence intensity was recorded at the specific excitation and emission wavelengths for each probe. The maximum emission wavelength intensity was plotted against the respective analytes.

Data set [14] in a line: Photostability evaluation under continuous excitation. In kind it is physicochemical. To be noted: 3 h illumination, PBS with 10% DMSO. As for the experimental part:
For photostability evaluation, PE859, 859‐1, or 859‐1 were diluted to 10 µM in PBS containing 10% DMSO. The solutions were loaded into a fluorescence spectrometer and the fluorescent intensity at maximum emission wavelength was recorded under continuous excitation for 180 min.

T3 sequence (P10415 whole entry, species assumed): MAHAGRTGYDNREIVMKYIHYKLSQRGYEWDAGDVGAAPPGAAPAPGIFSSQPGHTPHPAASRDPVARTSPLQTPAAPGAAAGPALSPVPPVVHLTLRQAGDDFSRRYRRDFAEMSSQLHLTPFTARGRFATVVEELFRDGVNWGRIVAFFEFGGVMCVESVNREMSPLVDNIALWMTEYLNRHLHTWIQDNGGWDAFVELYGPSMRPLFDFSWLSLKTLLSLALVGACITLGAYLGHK
T6 sequence (P10636 1-441 isoform P10636-8): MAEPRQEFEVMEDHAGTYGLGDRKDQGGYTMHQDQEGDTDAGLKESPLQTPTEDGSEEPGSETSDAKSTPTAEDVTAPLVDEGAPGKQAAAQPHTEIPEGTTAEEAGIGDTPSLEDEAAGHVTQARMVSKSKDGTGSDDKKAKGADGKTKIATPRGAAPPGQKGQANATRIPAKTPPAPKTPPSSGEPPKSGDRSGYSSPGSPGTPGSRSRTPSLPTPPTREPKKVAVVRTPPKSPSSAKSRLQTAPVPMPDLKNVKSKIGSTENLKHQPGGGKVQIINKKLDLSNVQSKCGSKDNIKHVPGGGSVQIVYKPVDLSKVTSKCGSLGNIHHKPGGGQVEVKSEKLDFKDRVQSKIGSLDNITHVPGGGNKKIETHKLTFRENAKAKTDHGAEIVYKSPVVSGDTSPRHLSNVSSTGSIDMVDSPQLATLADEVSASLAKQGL
T2 sequence (Q13148 whole entry): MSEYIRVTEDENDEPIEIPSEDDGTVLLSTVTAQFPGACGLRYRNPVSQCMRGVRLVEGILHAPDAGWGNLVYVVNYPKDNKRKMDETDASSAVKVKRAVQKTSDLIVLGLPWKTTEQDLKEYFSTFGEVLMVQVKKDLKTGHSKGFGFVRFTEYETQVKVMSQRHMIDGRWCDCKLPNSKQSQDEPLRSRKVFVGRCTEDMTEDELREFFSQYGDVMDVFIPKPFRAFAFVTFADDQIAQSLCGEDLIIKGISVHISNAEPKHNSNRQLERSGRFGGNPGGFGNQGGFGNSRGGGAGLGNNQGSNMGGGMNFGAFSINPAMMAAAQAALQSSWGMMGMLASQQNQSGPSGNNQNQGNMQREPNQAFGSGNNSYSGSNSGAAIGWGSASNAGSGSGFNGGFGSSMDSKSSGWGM
Chain of tau aggregates in AD brain sections (P10636 623-695 limits assumed): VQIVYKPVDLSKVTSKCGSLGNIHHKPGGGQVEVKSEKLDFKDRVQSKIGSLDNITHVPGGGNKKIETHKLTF
T1 sequence (Q13148 whole entry): as the sequence (Q13148 whole entry) above
T5 sequence (P10415 whole entry): as the sequence (P10415 whole entry, species assumed) above
T4 sequence (P10415 whole entry): as the sequence (P10415 whole entry, species assumed) above

`Cc1ccc(Cl)cc1NC(=O)c1cc2c(=O)n3cccc(C)c3nc2n1C` [B3]: in [1], the “PCC with anti-TDP-43 antibody staining” value is on record as 0.95. Further, in data set [2], the “Blue shift of emission upon interaction with TDP-43 aggregates” value is given as 30 nm and the “Fluorescence turn-on response to TDP-43 aggregates” value is on record as “most significant fluorescence enhancement”. In addition, in data set [3] (MeCN), the Quantum yield experimental was found to be 0.2891 and the log10ε experimental was 4.2923. Also, in data set [3], the “λAbs b, spectra assays data” value is listed as 370 nm; the “λEm b, spectra assays data” value amounted to 443 nm; the ε was found to be 19600.

Consider `Cc1ccc(-n2c(/C=C\c3ccc(F)c(F)c3)nc3ccccc3c2=O)c(C)c1` [B6], for which, in data set [3], the “λAbs b, spectra assays data” value is 330 nm; the “λEm b, spectra assays data” value worked out at 450 nm; the ε is on record as 20200.

A word on the Ki: it is a measure of affinity in units of concentration, obtained from inhibition or displacement. Turning to `COC1=CC(c2cc3ccccc3[nH]2)=N/C1=C\c1[nH]c(C)cc1C` [obatoclax], the “Accumulation in tumors versus other organs” value in data set [4] is “higher accumulation in tumors compared to other organs”. Moreover, in data set [5], the “Blue shift of emission in the presence of BCL-2” value is given as 7 nm and the “Fluorescence turn-on response to BCL-2” value is “most significant fluorescence enhancement”. In data set [6], the “Detection of BCL-2 in overexpressing cell lines” value is on record as “effectively detected”. Also, in data set [7], the “PCC with anti-BCL-2 antibody staining” value is listed as 0.80. The Ki in data set [8] is 220 nM. In data set [3] (MeCN), the Quantum yield experimental was 0.0069 and the log10ε experimental was 4.5902. Moreover, in data set [3], the “λAbs b, spectra assays data” value came out at 480 nm; the “λEm b, spectra assays data” value amounted to 540 nm; the ε is 38920.

`Cn1c(C(=O)Nc2ccc(OC(F)(F)F)cc2)cc2c(=O)n3ccccc3nc21` [B5]: in data set [3], the “λAbs b, spectra assays data” value stood at 382 nm; the “λEm b, spectra assays data” value worked out at 450 nm; the ε was determined as 19800.

As usually defined, the IC50 is the concentration at which inhibition is half-maximal. Consider `COc1cc(OCc2ccccn2)ccc1/C=C/c1cc(/C=C/c2ccc3cc[nH]c3c2)[nH]n1` [PE859], for which the “Pearson Correlation Coefficient (PCC) with anti-tau antibody staining” value in data set [9] was 0.85. For the same molecule, in data set [10], the IC50 was 660 nM. Besides, in data set [11], the “Blue shift in emission maximum upon binding to tau aggregates” value stood at 10 nm. For the same molecule, the “Fluorescence turn-on response to tau aggregates” value in data set [11] is listed as “most significant fluorescence enhancement”. In addition, the λAbs in [3] (DMSO) was found to be 343 nm; in [3] (EtOH, Extended Data Table 5), 335 nm; in [3] (H2O, Extended Data Table 5), 352 nm; in data set [3] (MeCN, Extended Data Table 5), 338 nm; in data set [3] (MeOH, Extended Data Table 5), 337 nm. The λEm in data set [3] (DMSO) was found to be 408 nm; in data set [3] (EtOH, Extended Data Table 5), 397 nm; in data set [3] (H2O, Extended Data Table 5), 422 nm; in data set [3] (MeCN, Extended Data Table 5), 402 nm; in data set [3] (MeOH, Extended Data Table 5) it was 410 nm. The molecule also showed a Quantum yield experimental in [3] (MeCN) of 0.1223. Further, in data set [3] (MeCN), the log10ε experimental came to 4.9675. In data set [3], the “λAbs b, spectra assays data” value is recorded as 335 nm. The molecule also came in with a ε in data set [3] of 92780.

In general, Kd refers to the concentration at which binding is half-saturated. A higher Kd goes with lower affinity. Regarding `COc1cc(OCc2ccccn2)ccc1/C=C/C1=[O+][B-](F)(F)OC(/C=C/c2ccc3cc[nH]c3c2)=C1` [859-1], the affinity in [12], expressed as Kd, was 217 nM. The “Pearson Correlation Coefficient (PCC) with anti-tau antibody staining” value in [9] is recorded as 0.95. Moreover, the “Fluorescence response to non-target analytes (selectivity)” value in data set [13] is given as “minimal response to other analytes”. Further, in data set [11], the “Fluorescence turn-on response to tau aggregates” value is listed as “substantially increased fluorescence intensity”. The “Emission redshift when incubated with tau aggregates” value in data set [11] (probe 2 µM, tau aggregates 4 µM) amounted to 6 nm. In data set [14], the “Fluorescence intensity variation under continuous illumination” value is listed as 152%. The λAbs in [3] (DMSO) is reported as 539 nm; in data set [3] (EtOH, Extended Data Table 5), 513 nm; in data set [3] (H2O, Extended Data Table 5), 510 nm; in data set [3] (MeCN, Extended Data Table 5) it was 514 nm; in data set [3] (MeOH, Extended Data Table 5) it was 514 nm. Besides, the λEm in [3] (DMSO) is given as 610 nm; in [3] (EtOH, Extended Data Table 5) it was 588 nm; in data set [3] (MeCN, Extended Data Table 5) it was 594 nm; in data set [3] (MeOH, Extended Data Table 5), 595 nm. Besides, in data set [3] (MeCN), the “Emission redshift compared to PE859” value was 192 nm. Moreover, in data set [3] (MeCN), the Quantum yield experimental worked out at 0.0063. In data set [3] (MeCN), this molecule registered a log10ε experimental of 4.9784.

The record behind these values is paper PMC12915096, “AI‐Driven Acceleration of Fluorescence Probe Discovery” (Advanced Science, 2025).
